The values that follow are results of earlier work, collected in patent US20040101555A1, “Method for stable and controlled delivery of (—)-hydroxycitric acid” (priority 2002, published 2004).

Bounds are passed on as bounds.

The conditions of data set [1]: single large oral dose or two divided oral doses totaling one fourth of the single dose; high-sugar diet.
The conditions of data set [2]: over a three week period; higher dosage, alone.

Turning to `O=C(O)CC(O)(C(=O)O)C(O)C(=O)O` (single isomer, unassigned; (-)) [HCA, (−)-Hydroxycitric acid], in data set [1], the “reduction in food consumption” value is on record as ≥ 10%.
In the case of `O=C([O-])CC(O)(C(=O)[O-])C(O)C(=O)[O-].[K+].[K+].[K+]` (stereo not drawn) [potassium (−)-hydroxycitirate, potassium (−)-hydroxycitrate], the average weight loss in data set [2] is 3 pounds per week.
